Laboratory results: PubChem BioAssay AID2693 (Broad Institute, 2010)
Converted amounts (≈) assume the structure as drawn. Results filed as inconclusive are left out. The source made the active and inactive calls.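 How the source made its calls: active means a dose response whose lowest growth-blocking dose, signal 3 SD under solvent wells, sits below the top dose; inconclusive means compound fluoresces without dose trend, or replicates split around top dose; inactive means no growth loss up to the top dose.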

Tested on: S. cerevisiae SKY197-pL101 growth, alamar blue fluorescence, 9 h
Assay: yeast viability loss, SKY197-pL101 strain – Alamar Blue fluorescence, MIC, counter-screen for polyadenylation inhibitor project, dose response (AID 2693)

Structure (SMILES)	MIC
COc1cc(/C=C2\SC(=S)N(NC(=O)c3ccncc3)C2=O)ccc1O	25 µM (≈ 9.69 µg/mL)
CC(=O)c1ccc(Sc2ccccc2)c([N+](=O)[O-])c1	> 50 µM (inactive)
Nc1ncnc2c1ncn2C1OC(CO)CC1O (stereo unspecified)	> 50 µM (inactive)
N#C/C(=C/c1ccc([N+](=O)[O-])o1)c1nc2ccccc2[nH]1	2.3 µM (≈ 0.645 µg/mL)
COc1cc(/C=C2/CC/C(=C/c3ccc(O)c(OC)c3)C2=O)ccc1O	> 50 µM (inactive)
CCOc1cc(/C=C2\N=C(SC(C)C(N)=O)N(c3ccc(OC(F)F)cc3)C2=O)ccc1O (stereo unspecified)	> 50 µM (inactive)
CCN1/C(=C\C=C\c2sc3ccccc3[n+]2CC)Sc2ccccc21	4.8 µM
Cc1ccc2nc(/C(C#N)=C/c3ccc([N+](=O)[O-])o3)[nH]c2c1	2.3 µM (≈ 0.677 µg/mL)
Cc1ccc(-c2nn3c(C)nnc3s2)cc1NC(=O)CSc1ccc(Cl)cc1	> 50 µM (inactive)
N#CC1(C#N)C2=C(CCCC2)NC(c2ccccc2)C1(C#N)C#N (stereo unspecified)	50 µM (≈ 15.7 µg/mL)
O=C(COC(=O)Cc1ccc(S(=O)(=O)N2CCOCC2)s1)NCc1ccc(Cl)cc1	> 50 µM (inactive)
Cc1ccc(Nc2c(-c3ccc(C)o3)nc3ncccn23)cc1	> 50 µM (inactive)
COc1cc(/C=C2/SC(=S)N(Cc3ccccc3)C2=O)cc(OC)c1O	> 50 µM (inactive)
O=C(Oc1c(-c2ccccc2)c(=O)n2c3c(cccc13)CC2)c1cccc([N+](=O)[O-])c1	> 50 µM (inactive)
Cc1ccc(C(=O)c2no[n+]([O-])c2C(=O)c2ccc(C)cc2)cc1	3.1 µM (≈ 0.999 µg/mL)
O=C(O)CN1C(=O)/C(=C\c2ccc(N3CCCCC3)o2)SC1=S	37 µM (≈ 13 µg/mL)
